Legend:
Type in all cases: cell-based
[1] = target: T1, serotonin transporter (SERT) (Homo sapiens, UniProt P31645); experiment: Serotonin reuptake inhibition, [3H]-5-HT, HEK-293 cells transfected with 5-HT transporter cDNA; conditions: for Triple reuptake inhibition (Ratio %) SERT: compound 1 μM, [3H]-5-HT, relative to control without compound = 100%, lower value = more inhibition; for IC50: concentration at which Ratio % is 50%, 6 concentrations 1 nM to 1 μM, read-out: Triple reuptake inhibition (IC50, μM) SERT
T1 construct: expressed in transfected cells; host or cells: HEK-293
Experimental: (§1) In order to evaluate the reuptake inhibitory effect of the compounds of the Examples according to the present invention on serotonin, norepinephrine and dopamine, the experiments below were performed, and the results are shown in Table 17.
(§2) To evaluate the reuptake inhibition effect on dopamine, the dopamine transporter cDNA was transfected using the HEK-293 cell line, and then sub-seeded in a 24 well plate the next day. After removing the medium, each compound of the Examples or Comparative Examples diluted to 1 μM in uptake buffer was added to a concentration of 200 μl/well and cultured at 37° C. for 15 minutes. 100 μl of uptake buffer containing 20-30 nM [3H]-DA was added and cultured at 37° C. for 5 minutes. The reaction solution was quickly removed and washed three times with 1 ml ice-cold uptake buffer. After dissolving the resultant in 1% SDS (0.5 ml), the degree of binding of radioisotope-labeled dopamine to the transporter was measured.
(§3) For norepinephrine (NE) and serotonin (5-HT), the degree of binding of radioisotope-labeled norepinephrine or serotonin to the transporter was measured in the same manner as above, except that cells transfected with NE or 5-HT transporter cDNA were used and [3H]—NE or [3H]-5-HT was used as a substrate.
(§4) In addition, when evaluating the reuptake inhibitory effect on dopamine, norepinephrine, and serotonin, the same method was performed without treating each compound of the Examples or Comparative Examples as a control, the degree of binding of radioisotope-labeled dopamine, norepinephrine, and serotonin to the transporter was measured, and by using this as a reference (100%), the triple reuptake inhibitory effect was evaluated as a relative ratio (Ratio %). That is, in the control group, the binding of dopamine, norepinephrine, and serotonin to transporters is not inhibited, but when each compound of the Examples is treated and thus the binding is inhibited, the Ratio % value decreases.
(§5) Meanwhile, the Ratio % values were compared, and in the case of the compounds of Examples 6, 10, 13, 14, 17, 20, 21, 22, 30, 31, 32, 34, 36, 38, 39, 40, 54, 55, 56, 57, 58 and 73 with excellent reuptake inhibitory effects on dopamine, norepinephrine and serotonin, the concentration at which the Ratio % is 50% was calculated using a total of 6 concentrations (1 nM, 5 nM, 10 nM, 50 nM, 100 nM, and 1 μM) and expressed as IC50.

[2] = target: T2, dopamine transporter (DAT) (Homo sapiens, UniProt Q01959); experiment: Dopamine reuptake inhibition, [3H]-DA, HEK-293 cells transfected with dopamine transporter cDNA; conditions: for Triple reuptake inhibition (Ratio %) DAT: compound 1 μM, 20-30 nM [3H]-DA, relative to control without compound = 100%, lower value = more inhibition; for IC50: concentration at which Ratio % is 50%, 6 concentrations 1 nM to 1 μM, read-out: Triple reuptake inhibition (IC50, μM) DAT
T2 construct: expressed in transfected cells; host or cells: HEK-293
Experimental: as §1, §2, §4, §5

[3] = target: T3, norepinephrine transporter (NET) (Homo sapiens, UniProt P23975); experiment: Norepinephrine reuptake inhibition, [3H]-NE, HEK-293 cells transfected with NE transporter cDNA; conditions: for Triple reuptake inhibition (Ratio %) NET: compound 1 μM, [3H]-NE, relative to control without compound = 100%, lower value = more inhibition; for IC50: concentration at which Ratio % is 50%, 6 concentrations 1 nM to 1 μM, read-out: Triple reuptake inhibition (IC50, μM) NET
T3 construct: expressed in transfected cells; host or cells: HEK-293
Experimental: as §1, §2, §3, §4, §5

T3 sequence (P23975 whole entry, species assumed): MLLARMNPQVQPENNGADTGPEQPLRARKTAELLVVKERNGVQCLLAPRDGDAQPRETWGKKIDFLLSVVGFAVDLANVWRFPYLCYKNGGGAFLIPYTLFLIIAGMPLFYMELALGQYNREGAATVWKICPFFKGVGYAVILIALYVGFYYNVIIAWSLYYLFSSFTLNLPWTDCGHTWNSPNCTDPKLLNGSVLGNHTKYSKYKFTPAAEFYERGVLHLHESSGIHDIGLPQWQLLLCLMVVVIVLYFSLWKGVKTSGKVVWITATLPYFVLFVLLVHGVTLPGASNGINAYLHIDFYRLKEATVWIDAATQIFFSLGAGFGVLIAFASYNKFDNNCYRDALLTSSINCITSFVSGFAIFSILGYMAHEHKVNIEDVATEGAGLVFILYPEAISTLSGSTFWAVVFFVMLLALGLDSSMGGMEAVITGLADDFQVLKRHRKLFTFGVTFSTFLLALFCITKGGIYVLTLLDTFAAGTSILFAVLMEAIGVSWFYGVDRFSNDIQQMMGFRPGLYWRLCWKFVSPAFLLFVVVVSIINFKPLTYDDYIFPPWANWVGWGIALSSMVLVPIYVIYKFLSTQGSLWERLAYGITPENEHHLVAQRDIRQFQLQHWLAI
T1 sequence (P31645 whole entry, species assumed): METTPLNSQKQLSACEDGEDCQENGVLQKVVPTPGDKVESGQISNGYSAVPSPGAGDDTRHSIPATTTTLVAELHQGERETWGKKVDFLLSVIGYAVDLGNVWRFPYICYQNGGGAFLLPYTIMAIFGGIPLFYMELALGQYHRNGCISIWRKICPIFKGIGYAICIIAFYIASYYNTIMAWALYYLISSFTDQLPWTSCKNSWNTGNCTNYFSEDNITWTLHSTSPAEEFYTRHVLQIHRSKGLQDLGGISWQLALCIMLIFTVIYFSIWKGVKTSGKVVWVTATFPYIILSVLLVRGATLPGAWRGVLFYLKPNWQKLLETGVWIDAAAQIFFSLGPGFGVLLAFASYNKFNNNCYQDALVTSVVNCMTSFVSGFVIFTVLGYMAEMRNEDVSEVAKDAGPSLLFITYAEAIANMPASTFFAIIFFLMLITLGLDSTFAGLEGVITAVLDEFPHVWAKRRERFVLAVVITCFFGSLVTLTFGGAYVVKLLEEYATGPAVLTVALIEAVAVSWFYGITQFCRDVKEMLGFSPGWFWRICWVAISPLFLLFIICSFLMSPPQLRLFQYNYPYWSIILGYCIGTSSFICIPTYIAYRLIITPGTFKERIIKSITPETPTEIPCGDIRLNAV
T2 sequence (Q01959 whole entry, species assumed): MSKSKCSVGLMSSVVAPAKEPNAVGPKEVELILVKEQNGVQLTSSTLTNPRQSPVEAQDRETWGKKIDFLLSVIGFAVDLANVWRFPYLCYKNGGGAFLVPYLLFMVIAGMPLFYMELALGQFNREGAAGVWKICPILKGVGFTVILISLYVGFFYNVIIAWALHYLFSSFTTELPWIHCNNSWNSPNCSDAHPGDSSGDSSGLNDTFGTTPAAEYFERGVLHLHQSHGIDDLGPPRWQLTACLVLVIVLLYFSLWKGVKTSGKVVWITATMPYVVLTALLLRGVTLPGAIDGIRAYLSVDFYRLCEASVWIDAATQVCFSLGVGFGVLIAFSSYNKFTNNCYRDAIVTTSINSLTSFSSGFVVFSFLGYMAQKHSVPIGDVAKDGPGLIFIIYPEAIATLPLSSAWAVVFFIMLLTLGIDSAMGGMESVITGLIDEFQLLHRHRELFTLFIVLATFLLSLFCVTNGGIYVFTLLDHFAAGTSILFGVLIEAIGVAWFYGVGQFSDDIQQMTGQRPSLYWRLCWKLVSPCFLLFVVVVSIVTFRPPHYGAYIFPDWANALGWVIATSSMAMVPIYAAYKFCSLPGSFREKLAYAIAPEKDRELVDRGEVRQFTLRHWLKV

| SMILES | Triple reuptake inhibition (Ratio %) SERT [1] [%] | Triple reuptake inhibition (Ratio %) DAT [2] [%] | Triple reuptake inhibition (Ratio %) NET [3] [%] | IC50 [1] [µM] | IC50 [3] [µM] | IC50 [2] [µM] |
| --- | --- | --- | --- | --- | --- | --- |
| O=S(=O)(NCCCN1CCC(Cc2ccccc2)CC1)c1ccc2ccccc2c1 [Example 54, N-(3-(4-benzylpiperidin-1-yl)propyl)naphthalen-2-sulfonamide] | 46.95 | 45.75 | 36.68 | 1.94 | 1.25 | 0.948 |
| O=S(=O)(NCCCN1CCC(Cc2ccccc2)CC1)c1ccc(OC(F)(F)F)cc1 [Example 34, N-(3-(4-benzylpiperidin-1-yl)propyl)-4-(trifluoromethoxy)benzenesulfonamide] | 57.25 | 16.35 | 20.03 | 2.59 | 0.612 | 0.942 |
| CCCCOc1ccc(S(=O)(=O)NCCCN2CCC(Cc3cccc(Cl)c3)CC2)cc1 [Example 31, 4-butoxy-N-(3-(4-(3-chlorobenzyl)piperidin-1-yl)propyl)benzenesulfonamide] | 14.27 | – | 18.93 | 0.216 | 0.041 | 1.05 |
| CCCCOc1ccc(S(=O)(=O)NCCN2CCC(Cc3ccc(Cl)c(Cl)c3)CC2)cc1 [Example 4, 4-butoxy-N-(2-(4-(3,4-dichlorobenzyl)piperidin-1-yl)ethyl)benzenesulfonamide] | 76.57 | 88.71 | 80.47 | – | – | – |
| CCCCNc1ccc(S(=O)(=O)NCCCN2CCC(Cc3ccccc3)CC2)cc1 [Example 16, N-(3-(4-benzylpiperidin-1-yl)propyl)-4-(butylamino)benzenesulfonamide] | 74.25 | 93.59 | 53.45 | – | – | – |
| CCCCOc1ccc(S(=O)(=O)NCCN2CCC(c3c[nH]c4ccc(OC)cc34)CC2)cc1 [Example 8, 4-butoxy-N-(2-(4-(5-methoxy-1H-indol-3-yl)piperidin-1-yl)ethyl)benzenesulfonamide] | 98.57 | 90.67 | 79.30 | – | – | – |
| O=S(=O)(NCCN1CCC(c2ccccc2)CC1)c1ccc(-c2ccccc2)cc1 [Example 44, N-(2-(4-phenylpiperidin-1-yl)ethyl)-[1,1′-biphenyl]-4-sulfonamide] | 15.55 | 37.93 | 14.04 | – | – | – |
| O=S(=O)(NCCN1CCN(c2ccc(Cl)cc2)CC1)c1ccc(-c2ccccc2)cc1 [Example 52, N-(2-(4-(4-chlorophenyl)piperazin-1-yl)ethyl)-[1,1′-biphenyl]-4-sulfonamide] | 47.19 | 68.53 | 64.45 | – | – | – |
| O=S(=O)(NCCN1CCN(c2ccc(Cl)cc2)CC1)c1cccc2ccccc12 [Example 51, N-(2-(4-(4-chlorophenyl)piperazinyl)ethyl)naphthalen-1-sulfonamide] | 47.19 | 68.53 | 64.45 | – | – | – |
| O=S(=O)(NCCN1CCN(c2ccc(Cl)cc2)CC1)c1ccc2ccccc2c1 [Example 50, N-(2-(4-(4-chlorophenyl)piperazinyl)ethyl)naphthalen-2-sulfonamide] | 45.16 | 86.50 | 87.27 | – | – | – |
| CCCCOc1ccc(S(=O)(=O)NCCCN2CCC(c3ccc(Cl)c(Cl)c3)CC2)cc1 [Example 22, 4-butoxy-N-(3-(4-(3,4-dichlorophenyl)piperidinyl)propyl)benzenesulfonamide] | 38.07 | 31.02 | 36.85 | 0.609 | 0.55 | 1.51 |
| O=S(=O)(NCCN1CCC(Cc2ccccc2)CC1)c1ccc(-c2ccccc2)cc1 [Example 40, N-(2-(4-benzylpiperidin-1-yl)ethyl)-[1,1′-biphenyl]-4-sulfonamide] | 33.23 | 41.80 | 33.45 | 3.08 | 1.05 | 3.92 |
| CCCCOc1ccc(S(=O)(=O)NCCN2CCC(c3c[nH]c4ccccc34)CC2)cc1 [Example 6] | 29.04 | 54.56 | 81.97 | 0.457 | – | 1.99 |

The next lines start with results.

| Triple reuptake inhibition (Ratio %) SERT [1] [%] | Triple reuptake inhibition (Ratio %) DAT [2] [%] | Triple reuptake inhibition (Ratio %) NET [3] [%] | IC50 [1] [µM] | IC50 [3] [µM] | SMILES | IC50 [2] [µM] |
| --- | --- | --- | --- | --- | --- | --- |
| 49.64 | 83.08 | 87.27 | – | – | O=S(=O)(NCCCN1CCN(Cc2ccccc2)CC1)c1cccc2ccccc12 [Example 67] | – |
| 21.60 | 20.60 | 30.25 | – | – | O=S(=O)(NCCCCN1CCC(CCCc2ccccc2)CC1)c1ccc(-c2ccccc2)cc1 [Example 79, N-(4-(4-(3-phenylpropyl)piperidin-1-yl)butyl)-[1,1′-biphenyl]-4-sulfonamide] | – |
| 61.48 | 76.23 | 44.79 | – | – | O=S(=O)(NCCCN1CCC(CCCc2ccccc2)CC1)c1ccc(-c2ccccc2)cc1 [Example 75, N-(3-(4-(3-phenylpropyl)piperidin-1-yl)propyl)-[1,1′-biphenyl]-4-sulfonamide] | – |
| 53.66 | 13.09 | 30.54 | 0.345 | 1.35 | O=S(=O)(NCCCN1CCC(Cc2ccccc2)CC1)c1ccc2ccccc2n1 [Example 57, N-(3-(4-benzylpiperidin-1-yl)propyl)quinolin-2-sulfonamide] | 4.48 |
| 50.76 | 55.51 | 44.79 | 1.84 | 0.429 | O=S(=O)(NCCCN1CCC(Cc2ccccc2)CC1)c1ccc(-c2ccc(F)cc2)cc1 [Example 58, N-(3-(4-benzylpiperidin-1-yl)propyl)-4′-fluoro-[1,1′-biphenyl]-4-sulfonamide] | 0.647 |
| 47.19 | 68.53 | 64.45 | 0.102 | – | O=S(=O)(NCCCN1CCN(c2ccc(Cl)cc2)CC1)c1ccc2ccccc2n1 [Example 73, N-(3-(4-(4-chlorophenyl)piperazin-1-yl)propyl)quinolin-2-sulfonamide] | – |
| 32.90 | 25.52 | 44.79 | – | – | O=S(=O)(NCCCCN1CCN(CCCc2ccccc2)CC1)c1ccc(-c2ccccc2)cc1 [Example 78, N-(4-(4-(3-phenylpropyl)piperazin-1-yl)butyl)-[1,1′-biphenyl]-4-sulfonamide] | – |
| 44.91 | 19.97 | 44.79 | – | – | O=S(=O)(NCCCN1CCN(CCCc2ccccc2)CC1)c1ccc(-c2ccccc2)cc1 [Example 76, N-(3-(4-(3-phenylpropyl)piperazin-1-yl)propyl)-[1,1′-biphenyl]-4-sulfonamide] | – |
| 61.48 | 76.23 | 44.79 | – | – | O=S(=O)(NCCCN1CCC(CCCc2ccccc2)CC1)c1ccc(-c2ccc(F)cc2)cc1 [Example 74, 4′-fluoro-N-(3-(4-(3-phenylpropyl)piperidin-1-yl)propyl)-[1,1′-biphenyl]-4-sulfonamide] | – |

Source: patent US20230212121A1 (DAEGU-GYEONGBUK MEDICAL INNOVATION FOUNDATION, priority 2020, published 2023)
